In this assay the target is T1, ABCG2 (Homo sapiens, UniProt Q9UNQ0).
T1 sequence (Q9UNQ0 1-655): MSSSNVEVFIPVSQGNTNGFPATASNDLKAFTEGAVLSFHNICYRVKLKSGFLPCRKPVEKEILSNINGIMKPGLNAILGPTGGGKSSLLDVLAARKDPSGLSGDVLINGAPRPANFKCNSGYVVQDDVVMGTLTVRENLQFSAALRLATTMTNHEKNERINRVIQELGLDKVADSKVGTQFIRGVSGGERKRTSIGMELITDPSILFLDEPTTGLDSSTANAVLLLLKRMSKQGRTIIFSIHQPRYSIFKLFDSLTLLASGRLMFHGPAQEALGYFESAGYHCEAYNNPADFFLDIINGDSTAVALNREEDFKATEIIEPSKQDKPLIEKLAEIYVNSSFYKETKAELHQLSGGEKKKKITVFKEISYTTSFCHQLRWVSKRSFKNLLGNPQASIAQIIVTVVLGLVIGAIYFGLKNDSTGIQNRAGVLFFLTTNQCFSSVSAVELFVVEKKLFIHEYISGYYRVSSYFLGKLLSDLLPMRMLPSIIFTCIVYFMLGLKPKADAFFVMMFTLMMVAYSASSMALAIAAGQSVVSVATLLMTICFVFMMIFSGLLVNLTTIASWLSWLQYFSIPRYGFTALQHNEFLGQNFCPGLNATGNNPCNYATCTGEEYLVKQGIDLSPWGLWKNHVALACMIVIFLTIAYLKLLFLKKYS
The format is binding.

One compound from article PMC2693460 (Cancer chemotherapy and pharmacology, 2009) can be followed below.

Each structure is given as a SMILES string.

Compound `CCN(CC)CCN1C(=O)c2c(c3c4cccc(Cl)c4n([C@@H]4O[C@H](CO)[C@@H](OC)[C@H](O)[C@H]4O)c3c3[nH]c4c(Cl)cccc4c23)C1=O` [becatecarin] yielded an IC50 of 2100 nM.
